According to patent US20160220569A1, “CDK4/6 Inhibitor Dosage Formulations For The Protection Of Hematopoietic Stem And Progenitor Cells During Chemotherapy” (G1 Therapeutics, Inc., priority 2015, published 2016):
Several values for one entry are separate records, joined by “and”; a condition that tells them apart may be missing. Equal values may be shown once. Read-outs that look alike come from different tables or passages of the source.

Experiments:
[1] = Repeat-dose IV toxicity in dogs; format: in vivo
Procedure: The magnitude and/or duration of this effect differed among cell lineages but was dose-related in all lineages. Effects on hematopoiesis were readily monitored by peripheral blood cell counts and were reversible when dosing stopped.
In both species, the toxicity profile was similar and the repeat-dose toxicity studies identified no observed adverse effect levels (NOAELs). […] This IV NOAEL was the basis for selecting a starting dose of 6 mg/m^2 for the first clinical trial, which is 1/10th of the lowest safe dose level in any animal study.

[2] = Compound 1 PK dosed Days 1-5 with topotecan; format: in vivo, human; details: for pre-dose concentration averaging: Day 4, mean; for AUC(0-inf) / Cmax / half-life: human, plasma, intravenous; for AUC(0-inf): read-out: AUCinf; for Cmax: read-out: Cmax; for half-life: read-out: t½ (converted)
Procedure: Analysis of plasma concentration versus time data for calculation of standard pharmacokinetic (PK) parameters following intravenous infusion administration was conducted using Phoenix WinNonlin version 6.3 using a nominal infusion duration and scheduled blood sampling times.

[3] = 200 mg/m^2 with Topotecan 0.75 mg/m^2 (Cohort 3), Day 1, Max
[4] = 200 mg/m^2 with Topotecan 0.75 mg/m^2 (Cohort 3), Day 1, individual subjects
[5] = 200 mg/m^2 with Topotecan 0.75 mg/m^2 (Cohort 3), Day 4, individual subjects
[6] = 200 mg/m^2 with Topotecan 1.25 mg/m^2 (Cohort 2), Day 1, Max
[7] = 200 mg/m^2 with Topotecan 1.25 mg/m^2 (Cohort 2), Day 1, Min
[8] = 200 mg/m^2 with Topotecan 1.25 mg/m^2 (Cohort 2), Day 1, individual subjects
[9] = 200 mg/m^2 with Topotecan […]^2 (Cohort 1), Day 1, Max
[10] = 200 mg/m^2 with Topotecan […]^2 (Cohort 1), Day 1, individual subjects
[11] = 200 mg/m^2 with Topotecan 0.75 mg/m^2 (Cohort 3), Day 1, Geo. Mean
[12] = 200 mg/m^2 with Topotecan 0.75 mg/m^2 (Cohort 3), Day 1, Mean
[13] = 200 mg/m^2 with Topotecan 0.75 mg/m^2 (Cohort 3), Day 1, Median
[14] = 200 mg/m^2 with Topotecan 0.75 mg/m^2 (Cohort 3), Day 4, Geometric Mean
[15] = 200 mg/m^2 with Topotecan 0.75 mg/m^2 (Cohort 3), Day 4, Mean
[16] = 200 mg/m^2 with Topotecan 0.75 mg/m^2 (Cohort 3), Day 4, Median
[17] = 200 mg/m^2 with Topotecan 1.25 mg/m^2 (Cohort 2), Day 1, Geo. Mean

Q: Which “dose with clinically significant leukopenia” value ([1]; dog, in vivo, 7 days) does the source give for `CN1CCN(c2ccc(Nc3ncc4cc5n(c4n3)C3(CCCCC3)CNC5=O)nc2)CC1` [Compound 1, 2′-((5-(4-methylpiperazin-1-yl)pyridin-2-yl)amino)-7′,8′-dihydro-6′H-spiro[cyclohexane-1,9′-pyrazino[1′,2′:1,5]pyrrolo[2,3-d]pyrimidin]-6′-one] here?
A: The value was 300 mg/m^2.

Q: What about the “dose leading to morbidity and mortality” value ([1]; dogs, daily doses for 6 days) of the same compound?
A: The value was 900 mg/m^2.

Q: And the AUC24.5 [2, 3]?
A: Its AUC24.5 is 2540 ng·h/mL.

Q: What about the AUCinf [2, 3] of the same compound?
A: The AUCinf was 2660 ng·h/mL.

Q: And the t½ [2, 3]?
A: The t½ was 9.24 h.

Q: What about the t½ ([2]; 200 mg/m^2 with Topotecan 0.75 mg/m^2 (Cohort 3), Day 1, Min) of the same compound?
A: The t½ was 6.64 h.

Q: And the AUC24.5 [2, 4]?
A: Its AUC24.5 is 2540 ng·h/mL.

Q: And the AUCinf [2, 4]?
A: The AUCinf was 2240 ng·h/mL and 2660 ng·h/mL.

Q: And the t½ [2, 4]?
A: Its t½ is 6.64 h and 9.24 h and 6.69 h.

Q: What about the t½ ([2]; 200 mg/m^2 with Topotecan 0.75 mg/m^2 (Cohort 3), Day 4, Min) of the same compound?
A: The t½ was 6.87 h.

Q: And the t½ [2, 5]?
A: Its t½ is 9.54 h and 6.87 h.

Q: And the AUC24.5 [2, 6]?
A: The AUC24.5 was 2450 ng·h/mL.

Q: What about the AUCinf [2, 6] of the same compound?
A: The AUCinf was 2720 ng·h/mL.

Q: And the AUC24.5 [2, 7]?
A: Its AUC24.5 is 2130 ng·h/mL.

Q: What about the t½ [2, 7] of the same compound?
A: The t½ was 6.14 h.

Q: And the AUC24.5 [2, 8]?
A: The AUC24.5 was 2450 ng·h/mL and 2130 ng·h/mL.

Q: What about the AUCinf [2, 8] of the same compound?
A: Its AUCinf is 2720 ng·h/mL and 2430 ng·h/mL.

Q: And the t½ ([2]; 200 mg/m^2 with Topotecan 1.25 mg/m^2 (Cohort 2), Day 4, Max)?
A: Its t½ is 10.6 h.

Q: And the t½ ([2]; 200 mg/m^2 with Topotecan 1.25 mg/m^2 (Cohort 2), Day 4, Min)?
A: The t½ was 7.15 h.

Q: What about the t½ ([2]; 200 mg/m^2 with Topotecan 1.25 mg/m^2 (Cohort 2), Day 4, individual subjects) of the same compound?
A: The t½ was 9.10 h and 10.6 h.

Q: And the AUCinf [2, 9]?
A: The AUCinf was 2430 ng·h/mL.

Q: What about the t½ [2, 9] of the same compound?
A: Its t½ is 6.24 h.

Q: What about the t½ ([2]; 200 mg/m^2 with Topotecan […]^2 (Cohort 1), Day 1, Min) of the same compound?
A: Its t½ is 5.60 h.

Q: What about the AUCinf [2, 10] of the same compound?
A: The AUCinf was 2430 ng·h/mL.

Q: What about the t½ [2, 10] of the same compound?
A: Its t½ is 6.24 h.

Q: And the t½ ([2]; 200 mg/m^2 with Topotecan […]^2 (Cohort 1), Day 4, Max)?
A: Its t½ is 9.15 h.

Q: And the t½ ([2]; 200 mg/m^2 with Topotecan […]^2 (Cohort 1), Day 4, Min)?
A: Its t½ is 6.96 h.

Q: And the t½ ([2]; 200 mg/m^2 with Topotecan […]^2 (Cohort 1), Day 4, individual subjects)?
A: The t½ was 9.15 h.

Q: And the pre-dose concentration averaging ([2]; Cohort 2 (Topotecan 1.25 mg/m^2))?
A: The pre-dose concentration averaging was 33.3 ng/mL.

Q: What about the pre-dose concentration averaging ([2]; Cohort 3 (Topotecan 0.75 mg/m^2)) of the same compound?
A: Its pre-dose concentration averaging is 27.1 ng/mL.

Q: And the AUC(0-inf) [2, 11]?
A: The AUC(0-inf) was 2170 ng·h/mL.

Q: What about the Cmax [2, 11] of the same compound?
A: Its Cmax is 1060 ng/mL.

Q: And the half-life [2, 11]?
A: The half-life was 7.33 h.

Q: What about the AUC(0-inf) [2, 12] of the same compound?
A: Its AUC(0-inf) is 2200 ng·h/mL.

Q: And the Cmax [2, 12]?
A: Its Cmax is 1140 ng/mL.

Q: What about the half-life [2, 12] of the same compound?
A: The half-life was 7.4 h.

Q: And the AUC(0-inf) [2, 13]?
A: The AUC(0-inf) was 2220 ng·h/mL.

Q: And the half-life [2, 13]?
A: Its half-life is 6.85 h.

Q: What about the half-life [2, 4] of the same compound?
A: The half-life was 7.01 h.

Q: What about the Cmax [2, 14] of the same compound?
A: Its Cmax is 1200 ng/mL.

Q: What about the half-life [2, 14] of the same compound?
A: The half-life was 8.69 h.

Q: What about the Cmax [2, 15] of the same compound?
A: The Cmax was 1330 ng/mL.

Q: What about the half-life [2, 15] of the same compound?
A: The half-life was 8.81 h.

Q: What about the Cmax [2, 16] of the same compound?
A: The Cmax was 1590 ng/mL.

Q: What about the half-life [2, 16] of the same compound?
A: Its half-life is 8.82 h.

Q: And the half-life [2, 5]?
A: The half-life was 10.7 h.

Q: What about the AUC(0-inf) [2, 17] of the same compound?
A: The AUC(0-inf) was 2490 ng·h/mL.

Q: And the Cmax [2, 17]?
A: The Cmax was 895 ng/mL.

Q: What about the half-life [2, 17] of the same compound?
A: Its half-life is 7.77 h.

Q: What about the AUC(0-inf) ([2]; 200 mg/m^2 with Topotecan 1.25 mg/m^2 (Cohort 2), Day 1, Mean) of the same compound?
A: Its AUC(0-inf) is 2490 ng·h/mL.
